Reference: US10472677B2, “Translational dysfunction based therapeutics” (Translational Therapeutics, Inc., priority 2005, dated 2019)

Columns and labels:
[1] = target: T1, eIF4E:mRNA binding in cells (Mus musculus, UniProt P63073); assay: immunopurification of eIF4E from treated cells and semiquantitative RT-PCR; type: cell-based
T1 construct: endogenous in cells; host or cells: NIH 3T3 cells
Description: Sepharose-conjugated protein G (Amersham Pharmacia) for 30 min at 4° C., incubated with 10 μg of mouse anti-eIF4E antibody (Transduction Laboratories) for 90 min at 4° C., and subsequently incubated overnight at 4° C. upon addition of 0.5 mg yeast tRNA (Sigma-Aldrich), 200 units/ml RNasin (Ambion), and Sepharose-conjugated protein G. Bound Sepharose was washed once with NET-2 buffer supplemented with 1 mg/ml heparin (Sigma-Aldrich) at 4° C., six times with NET-2 buffer alone, and suspended in 100 mM Tris.HCl (pH 6.8)/4% (wt/vol) SDS/20% (vol/vol) glycerol/12% (vol/vol) 2-mercaptoethanol, and incubated for 5 min at 98° C. RNA was extracted once with 25:24:1 […], twice with chloroform:isopropanol, precipitated overnight at −20° C. with 2.5 volumes of absolute ethanol, 0.1 volume of 5 M sodium acetate (pH 5.2), and 20 μg glycogen (Sigma-Aldrich), washed with 75% (vol/vol) ethanol, and resuspended in water. […]. […]

[2] = cited from earlier work
eIF4E W73A = target: T2, eIF4E W73A (Mus musculus, UniProt P63073, W73A); assay: tryptophan fluorescence quenching titration, dorsal surface mutant; type: binding; conditions: relative to wild-type eIF4E
T2 construct: made in house
T2 sequence (P63073 whole entry W73A): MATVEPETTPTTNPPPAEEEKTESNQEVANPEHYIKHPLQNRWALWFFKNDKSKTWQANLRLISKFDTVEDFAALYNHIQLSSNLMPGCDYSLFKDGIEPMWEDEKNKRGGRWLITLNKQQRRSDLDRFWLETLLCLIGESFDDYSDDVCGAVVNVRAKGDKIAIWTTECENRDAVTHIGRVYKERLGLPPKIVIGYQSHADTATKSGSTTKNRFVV
Description: For fluorescence titrations, mouse eIF4E, which differs from human eIF4E by four nonconserved amino acids, was produced as described. For NMR spectroscopy, mouse eIF4E was expressed as a fusion with the B1 domain of protein G (G4E, kind gift of Gerhard Wagner, Harvard University, Cambridge, Mass.), in BL21 (DE-3) cells by induction with 0.8 mM isopropyl-β-D-thiogalactopyranoside at 18° C. for 20 h in M9 minimal media containing 1 g/l ^15NH4Cl as the sole nitrogen source (Cambridge Isotopes). […] Eluate was dialyzed extensively against 0.1 M NaCl/50 mM Na2PO4 (pH 6.5)/5 mM DTT at 4° C. to produce apo-G4E, as verified by using NMR spectroscopy and fluorescence titrations. […]
Fluorescence measurements were performed by using a home-built fluorimeter, as described. All titrations were performed in 0.3 M NaCl/10 mM Na2PO4 (pH 7.5)/1 μM zinc in 0.3×0.3 cm^2 fluorescence cuvette (Hellma), by using eIF4E concentration of 2 μM. […] Corrected relative fluorescence intensities were normalized, and fluorescence quenching curves were fit to a heuristic single-site-binding expression: I/I0=Kd^n/(x^n+Kd^n) where x is ligand concentration, Kd is the apparent dissociation constant, and n is the Hill coefficient.

NIH 3T3 cells = type: cell-based, mouse
Description: For assessment of necrosis and apoptosis, cells were washed twice with PBS, suspended in 0.14 M NaCl/10 mM Na-Hepes (pH 7.4/2.5 mM CaCl2 at 4° C. at a density of 10^6 cell per ml, and stained with 5 μg/ml propidium iodide and FITC-conjugated annexin V (Becton Dickinson) for 15 min at room temperature Immediately thereafter, cells were washed and analyzed by using a FACSCalibur fluorescence-activated cell scanner (Becton Dickinson). For assessment of cell-cycle profiles, cells were washed twice with PBS, fixed, and permeabilized in 70% (vol/vol) ethanol for 30 min at 4° C., and incubated in PBS containing 10 μg/ml propidium iodide and 30 units/ml RNase A at 37° C. for 30 min. For both measurements, detector gain and compensation settings were adjusted to minimize autofluorescence of unstained cells and channel crosstalk. For cell-cycle analysis, the propidium iodide channel was gated based on light scattering to exclude clumped cells, which may artifactually skew the observed fluorescence intensity.
Cells were seeded at a density of 5,000 cells per well and maintained in 100 μl per well in 96-well plates. […] Production of formazan was quantified by using a μ Quant plate reader (Bio-Tek Instruments) by monitoring the difference in absorbance at 492 and 690 nm, as referenced to the difference in absorbance of samples containing 50 μl of RPMI medium 1640 without phenol red. […]

FaDu tumors in nude mice = type: in vivo
Description: Female 5- to 7-week-old athymic NCr-nu/nu mice were obtained from Taconic Farms. Human FaDu cells, derived from a hypopharyngeal squamous cell carcinoma, were obtained from the American Type Culture Collection. Mice were inoculated s.c. into the right flank with 0.5×10^6 cells in 50 μl PBS, and were randomly segregated into two groups of 10 mice each. After 1 week of engraftment, treatment was administered orally each day at a dose of 40 μg/kg Ribavirin. Tumor size was ascertained by measuring tumor diameter, and statistical significance was ascertained by using a paired t test.

T1 sequence (P63073 2-217 limits assumed): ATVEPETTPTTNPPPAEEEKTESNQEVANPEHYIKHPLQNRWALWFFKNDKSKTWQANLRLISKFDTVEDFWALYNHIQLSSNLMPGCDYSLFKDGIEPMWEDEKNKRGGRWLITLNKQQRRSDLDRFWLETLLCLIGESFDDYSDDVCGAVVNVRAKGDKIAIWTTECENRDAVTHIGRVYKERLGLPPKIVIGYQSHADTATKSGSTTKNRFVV

SMILES: NC(=O)c1ncn([C@@H]2O[C@H](CO)[C@@H](O)[C@H]2O)n1 [Ribavirin, 1-β-D-ribofuranosyl-1,2,4-triazole-3-carboxamide]
- cytoplasmic eIF4E:VEGF mRNA complexes ([1]; 1 uM): partly abrogated
- cytoplasmic eIF4E:actin mRNA complexes ([1]; 100 uM): not disrupted
- EC50 ([1]; nuclear eIF4E, read-out: apparent EC50 inhibition of eIF4E binding to cyclin D1 mRNA in cells): ~1000 nM
- solubility in anhydrous ethanol ([2]; anhydrous ethanol): sparingly soluble
- solubility in water ([2]; water): freely soluble
- effect of W73A mutation on Ribavirin affinity (eIF4E W73A): no significant effect
- proportion of cells restricted to the G1 phase (NIH 3T3 cells; 0.1 μM, untreated 58%): 91%
- concentration with significant effects on viability and metabolism (NIH 3T3 cells; mouse): ≥ 100 µM
- mean tumor volume, fold less than untreated control (FaDu tumors in nude mice; 40 ug/kg orally daily, after 20 days, P=0.023): 6 fold
- mean body concentration (FaDu tumors in nude mice; 40 ug/kg orally each day): ca. 1 uM
